The values that follow come from patent US8524685B1, “Anti-angiogenic therapeutics efficacy enhanced by nanoformulation” (University of Puerto Rico, priority 2010, dated 2013).

The subject of test [1] is capillary endothelial cells. The conditions noted are these: in vitro, capillary endothelial cells plated on fibronectin-coated dishes; cited from earlier work.
The subject of test [2] is PERK. The test can be described thus: Unfolded protein response, western blot of PERK. The test is classed as cell-based, bovine. The conditions noted are these: FIG. 5. The method, then: (§1) The capillary endothelial cells were from the laboratory stock of a non-transformed endothelial cell line from bovine adrenal medulla and maintained as previously described. Synchronized cultures (33) were treated with Tunicamycin nanoparticles (1 μg/ml) for 1 h in EMEM containing 2% fetal bovine serum (heat inactivated).
(§2) Performed as before with 7.5% gel concentration.
(§3) It has been observed recently that Tunicamycin inhibits angiogenesis in vitro and in vivo as well as during the breast tumor progression by ER stress-mediated induction of unfolded protein response. In addition, it has also been shown that Tunicamycin gold nanoparticles inhibit capillary endothelial cell cycle progression much more effectively than native Tunicamycin. It was also evaluated if Tunicamycin gold nanoparticles would also activate the pathway that induces the unfolded protein response. The results shown in FIG. 5 indicate that Tunicamycin gold nanoparticles affect both transcription and translation.

Test [3] relates to CDK4. The test can be described thus: Western blot of CDK4 expression in capillary endothelial cells. The test is classed as cell-based, bovine. The note with it: 1 μg/ml, FIG. 2, for the conjugates also compared to native Tunicamycin. The method, then:
as §1, §2
(§4) To evaluate the biochemical pathway the Tunicamycin nanoparticles are likely to interfere, their effect on the cell cycle progression has been analyzed. The cell cycle antigens have been analyzed focusing primarily on the D-type cycline and their partners because Tunicamycin causes cell cycle arrest in G1. […] Expression of cyclin D1 and its catalytic partner, i.e., CDK4 was analyzed by western blotting. […] There was a little difference with the CDK4 expression. It was higher in cells treated with 20 nm gold particles […], but they both were much reduced compared to the untreated control or cells treated with native Tunicamycin as shown in FIG. 2. p53 is a gate keeper for the cell cycle. Upon phosphorylation p53 migrates to the nucleus and activates gene transcription.
(In general: Immunoblotting shows a protein as a band on a membrane.)

For test [4], the system named is IRE-1. The test is described as follows: Unfolded protein response, western blot of IRE-1. It counts as cell-based, bovine. The note with it: FIG. 5. The method, then: as §1, §2, §3
For test [5], the system named is GRP-78/Bip. The conditions noted are these: shown earlier; cited from earlier work.
Test [6] relates to p53p^ser392. The test is described as follows: Western blot of p53 phosphorylated in serine392. The test is classed as cell-based, bovine. The conditions noted are these: FIG. 3. The method, then: as §1, §2, §4
Test [7] has as its system phosphoPERK. The test can be described thus: Unfolded protein response, western blot of phosphoPERK. The note with it: FIG. 5. It counts as cell-based, bovine. The method, then: as §1, §2, §3
In test [8] the test system is breast tumor. The conditions noted are these: athymic nude mice; cited from earlier work.
Test [9] has as its system capillary endothelial cells. The test can be described thus: MTT assay, capillary endothelial cell viability. The test is classed as cell-based, bovine. The note with it: 1 μg/ml, 3 h at 37° C., FIG. 1. The method, then: as §1
Synchronized capillary endothelial cells were incubated with Tunicamycin (1 μg/ml) alone or with 1 μg/ml of Tunicamycin nanoparticles for 3 h at 37° C. in a CO2 incubator (5% CO2 and 95% air) in 96-well microtiter plates. At the end the plates were processed for the MTT Assay. The results shown in FIG. 1 indicate that the cell viability was reduced to almost 50% (p<0.001) when treated with Tunicamycin conjugated to 20 nm or 50 nm gold particles.
(Tetrazolium dyes change colour on reduction, which living cells bring about.)

Test [10] deals with cyclin D1. The test can be described thus: Western blot of cyclin D1 expression in capillary endothelial cells. It counts as cell-based, bovine. The conditions noted are these: 1 μg/ml, FIG. 2. The method, then:
as §1, §2, §4

Test [11] deals with angiogenesis. The note with it: in vitro/in vivo; cited from earlier work.

Consider `OC[C@H]1NC[C@@H](O)[C@@H](O)[C@@H]1O` [deoxymannojirimycin], for which the “formation of capillary tubes” value in test [1] is reported as “inhibited the formation of capillary tubes”.

With `O[C@H]1[C@H]2[C@H](O)CCCN2C[C@H]1O` [swainsonine], in [1], the “formation of capillary tubes” value is on record as “did not inhibit tube formation”.

For Tunicamycin, the PERK activation result in [2] is “either had no effect or the effect is drastically reduced”. Further, the “expression of CDK4 compared to the untreated control” value in test [3] was “enhanced”. Also, the “IRE-1 (transcriptional attenuator) activation” value in test [4] is listed as “either had no effect or the effect is drastically reduced”. The “time of treatment at which ER stress is induced” value in [5] is given as 3 h. Besides, in test [6], the “expression of p53 phosphorylated in serine392 (p53p^ser392)” value is recorded as “no effect”. The “phosphoPERK (translational attenuator) activation” value in test [7] is “either had no effect or the effect is drastically reduced”. Moreover, in [8], the breast tumor growth entry was “reduce the breast tumor growth”. In addition, in [9], the “effect on capillary endothelial cell viability compared to the control” value is listed as “does not show any effect”. In test [10], the “expression of cyclin D1 compared to the untreated control” value is “enhanced”. Moreover, the angiogenesis result in test [11] is recorded as “inhibit angiogenesis”.
